# From patent US20180327367A1, “MACROCYCLIC BROAD SPECTRUM ANTIBIOTICS” (priority 2015, published 2018)
# Like-named read-outs stand apart in the source and are kept apart here.
# Assays:
# [1] = system: Methicillin Resistant Staphylococcus aureus strain USA 300, NRS384; experiment: Minimum inhibitory concentration, broth micro-dilution (CLSI), S. aureus; assay type: cell-based; settings: Staphylococcus aureus, MRSA / NRS 384 / USA300, 22 h, 35° C., 22 hours
# Procedure, shortened: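 Ten-point 2-fold series began at 4 μg/mL in protocol 2 and 0.5 μg/mL in protocol 3, in cation-adjusted MHB plus 0.002% Tween-80. Bacteria added to OD600 0.0005 final and incubated at 35° C for 22 hours per CLSI microdilution.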
# [2] = biological target: T1, SpsB (Staphylococcus aureus signal peptidase) (Staphylococcus aureus, UniProt P0A070); experiment: cell-based; assay type: biochemical; settings: SpsB IC50, whole-cell S. aureus (USA300 background, overexpressing SpsB) as SpsB source; fluorogenic peptide substrate, kinetic read 30 min
# T1 construct: This assay uses a suspension of Staphylococcus aureus cells as a source of SpsB instead of recombinant SpsB protein; endogenous in cells; host or cells: S. aureus, USA300 background, overexpressing SpsB (whole-cell suspension from frozen pellets)
# T1 sequence (P0A070 whole entry): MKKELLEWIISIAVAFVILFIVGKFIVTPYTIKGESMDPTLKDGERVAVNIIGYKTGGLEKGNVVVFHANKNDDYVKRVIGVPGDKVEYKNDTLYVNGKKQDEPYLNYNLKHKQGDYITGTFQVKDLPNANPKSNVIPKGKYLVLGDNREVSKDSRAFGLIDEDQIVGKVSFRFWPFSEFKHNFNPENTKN
# Method: A kinetic fluorogenic enzyme activity assay was used to assess inhibition of SpsB (Staphylococcus aureus signal peptidase) activity and IC50s were determined. This assay uses a suspension of Staphylococcus aureus cells as a source of SpsB instead of recombinant SpsB protein.
# Cell preparation: Luria broth (LB) was inoculated with S. aureus (USA300 background, overexpressing SpsB) and shaken at 37° C. until an OD600 nm of 1.5-2.0 was reached (˜4 hr). The culture was then diluted to an OD600 nm of 1.0 with LB, aliquoted and centrifuged at 10,000×g for 2 mins. The supernatant was removed and the pellet was resuspended in phosphate buffer (1×PBS, 12.5 mg/L MgCl2, 25 mg/L CaCl2, 0.1% Tween-80) to an OD600 nm of 0.5, then centrifuged again at 10,000x g for 2 mins. The supernatant was removed and the pellets were frozen at −20° C.
# Test compounds were prepared in DMSO at a concentration of 10 mg/mL. These compound stocks were diluted into DMSO to a concentration of 25 μg/mL and serial 3-fold dilutions were made in DMSO, for a total of 11 compound concentrations. 20 nL of each compound solution was pre-spotted into a white 384-well plate (50 μL/well polypropylene, Nunc) using acoustic fluid transfer (Echo).
# Frozen S. aureus pellets were resuspended in assay buffer (1x PBS, 12.5 mg/L MgCl2, 25 mg/L CaCl2, 0.1% Tween-80) to an OD600 nm of 0.05, then mixed 1:1 (v/v) with 20 μM substrate ((Dabcyl)βAla-KPAKAAE(Edans)) in assay buffer, and this solution was added (20 μL/well) to the 384-well plate that had been pre-spotted with compound. Fluorescence intensity was then immediately read kinetically for 30 minutes with 2 minute read intervals to monitor cleavage of the internally quenched peptide substrate (excitation wavelength=340 nm, emission wavelength=490 nm, Molecular Devices Spectramax M5). Reaction rate (slope) was plotted against inhibitor concentration to derive the IC50.
# [3] = system: Escherichia coli MC4100 harboring the IMP4213 (E. coli IMP); experiment: microbe, parasite or virus in culture; assay type: cell-based; settings: Escherichia coli, 22 h, read-out: MIC (μg/mL) E. coli IMP, E. coli MC4100 IMP4213, increased outer-membrane permeability; 35° C., 22 hours
# Procedure, shortened: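 Colonies grown 20 hours at 35° C were suspended in cation-adjusted Mueller Hinton Broth with 0.002% Tween-80. Cells were then added to 2-fold compound dilutions starting at 4 or 0.5 μg/mL, at OD600 0.0005.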
# [4] = system: Escherichia coli ATCC 25922; experiment: Minimum inhibitory concentration, broth micro-dilution (CLSI), E. coli; assay type: cell-based; settings: Escherichia coli, ATCC25922, 22 h, 35° C., 22 hours
# [5] = MRSA USA 300 NRS384, read-out: MIC (μg/mL) S. aureus
# [6] = E. coli ATCC 25922, read-out: MIC (μg/mL) E. coli
# [7] = read-out: MIC (μg/mL) S. aureus, MRSA USA 300 NRS384
# [8] = read-out: MIC (μg/mL) E. coli, E. coli ATCC 25922
structure (smiles),measurement,setting,value
CCCCCCCCc1ccc(C(=O)N[C@@H](CC(N)=O)C(=O)N(C)[C@@H]2C(=O)N[C@@H](C)C(=O)N[C@H](C(=O)NCC#N)Cc3ccc(OCCN)c(c3)-c3cc2ccc3OCCN)c(C)c1 [Compound 239],MIC,[1]; [5],0.047 µg/mL
same,IC50,[2],740 pM
same,MIC,[3],0.094 µg/mL
same,MIC,[4]; [6],3 µg/mL
CCCCCCCCc1ccc(C(=O)N[C@@H](CCN)C(=O)N(C)[C@@H]2C(=O)N[C@@H](C)C(=O)N[C@H](C(=O)NCC#N)Cc3ccc(OCCN)c(c3)-c3cc2ccc3OCCN)c(C(F)(F)F)c1 [Compound 192],MIC,[1]; [5],0.063 µg/mL
same,IC50,[2],890 pM
same,MIC,[3],0.012 µg/mL
same,MIC,[4]; [6],0.25 µg/mL
"CCCCCCCCC(F)C(=O)NC(CO)C(=O)N(C)C1C(=O)NC(C)C(=O)NC(C(=O)NCC#N)Cc2ccc(OCCN)c(c2)-c2cc1ccc2OCCN (single isomer, unassigned) [Compound 394-P1]",MIC,[1]; [7],1 µg/mL
same,IC50,[2],3900 pM
same,MIC,[3],0.25 µg/mL
same,MIC,[4]; [8],> 64 µg/mL
CCCCCCOCc1ccc(C(=O)N[C@@H](CCN)C(=O)N(C)[C@@H]2C(=O)N[C@@H](C)C(=O)N[C@H](C(=O)NCC#N)Cc3ccc(OCCN)c(c3)-c3cc2ccc3OCCN)c(C)c1 [Compound 298],MIC,[1]; [5],0.063 µg/mL
same,IC50,[2],820 pM
same,MIC,[3],0.0078 µg/mL
same,MIC,[4]; [6],1 µg/mL
CCCCC1CCC(C2CCC(C(=O)N[C@@H](CCN)C(=O)N(C)[C@@H]3C(=O)N[C@@H](C)C(=O)N[C@H](C(=O)NCC#N)Cc4ccc(OCCN)c(c4)-c4cc3ccc4OCCN)CC2)CC1 (some centres unmarked) [Compound 426],MIC,[1]; [5],0.063 µg/mL
same,IC50,[2],1200 pM
same,MIC,[3],< 0.0039 µg/mL
same,MIC,[4]; [6],0.19 µg/mL
CCCCCCCCCC(=O)N[C@@H](C)C(=O)N[C@@H](CCN)C(=O)N(C)[C@@H]1C(=O)N[C@@H](C)C(=O)N[C@H](C(=O)NCC#N)Cc2ccc(OCCN)c(c2)-c2cc1ccc2OCCN [Compound 373],MIC,[1]; [7],0.19 µg/mL
same,IC50,[2],880 pM
same,MIC,[3],0.063 µg/mL
same,MIC,[4]; [8],4 µg/mL
Cc1nn(-c2ccc(CC(C)C)cc2)cc1C(=O)N[C@@H](CCN)C(=O)N(C)[C@@H]1C(=O)N[C@@H](C)C(=O)N[C@H](C(=O)NCC#N)Cc2ccc(OCCN)c(c2)-c2cc1ccc2OCCN [Compound 443],MIC,[1]; [5],0.094 µg/mL
same,IC50,[2],900 pM
same,MIC,[3],0.047 µg/mL
same,MIC,[4]; [6],4 µg/mL
CCCCCOc1ccc(C(=O)N[C@@H](CCN)C(=O)N(C)[C@@H]2C(=O)N[C@@H](C)C(=O)N[C@H](C(=O)NCC#N)Cc3ccc(OCCN)c(c3)-c3cc2ccc3OCCN)c(Cl)c1 [Compound 270],MIC,[1]; [5],0.094 µg/mL
same,IC50,[2],890 pM
same,MIC,[3],0.016 µg/mL
same,MIC,[4]; [6],0.63 µg/mL
CCCCCCc1ccc(C(=O)N[C@@H](CCN)C(=O)N(C)[C@@H]2C(=O)N[C@@H](C)C(=O)N[C@H](C(=O)NCC#N)Cc3ccc(OCCN)c(c3)-c3cc2ccc3OCCN)cn1 [Compound 201],MIC,[1]; [5],0.19 µg/mL
same,IC50,[2],1400 pM
same,MIC,[3],0.031 µg/mL
same,MIC,[4]; [6],2 µg/mL
CCCCCCCOc1ccc(C(=O)N[C@@H](CCN)C(=O)N(C)[C@@H]2C(=O)N[C@@H](C)C(=O)N[C@H](C(=O)NCC#N)Cc3ccc(OCCN)c(c3)-c3cc2ccc3OCCN)c(Cl)c1 [Compound 267],MIC,[1]; [7],0.027 µg/mL
same,IC50,[2],630 pM
same,MIC,[3],0.012 µg/mL
same,MIC,[4]; [8],0.13 µg/mL
CCCCc1ccc(-c2ccc(C(=O)N[C@@H](Cc3c[nH]cn3)C(=O)N(C)[C@@H]3C(=O)N[C@@H](C)C(=O)N[C@H](C(=O)NCC#N)Cc4ccc(OCCN)c(c4)-c4cc3ccc4OCCN)cc2)cc1 [Compound 478],MIC,[1]; [5],0.19 µg/mL
same,IC50,[2],1500 pM
same,MIC,[3],0.19 µg/mL
same,MIC,[4]; [6],6 µg/mL
Cc1nc(-c2ccc(CC(C)C)cc2)sc1C(=O)N[C@@H](CCN)C(=O)N(C)[C@@H]1C(=O)N[C@@H](C)C(=O)N[C@H](C(=O)NCC#N)Cc2ccc(OCCN)c(c2)-c2cc1ccc2OCCN [Compound 166],MIC,[1]; [5],0.063 µg/mL
same,IC50,[2],780 pM
same,MIC,[3],0.016 µg/mL
same,MIC,[4]; [6],0.5 µg/mL
Cc1cc(OCC2CCCCC2)ccc1C(=O)N[C@@H](CCN)C(=O)N(C)[C@@H]1C(=O)N[C@@H](C)C(=O)N[C@H](C(=O)NCC#N)Cc2ccc(OCCN)c(c2)-c2cc1ccc2OCCN [Compound 275],MIC,[1]; [5],0.063 µg/mL
same,IC50,[2],550 pM
same,MIC,[3],0.014 µg/mL
same,MIC,[4]; [6],0.38 µg/mL
CCCCCCCCc1ccc(C(=O)N[C@@H](CO)C(=O)N(C)[C@@H]2C(=O)N[C@@H](C)C(=O)N[C@H](C(=O)NCC#N)Cc3ccc(OCCN)c(c3)-c3cc2ccc3OCCN)c(C)c1 [Compound 235],MIC,[1]; [5],0.094 µg/mL
same,IC50,[2],980 pM
same,MIC,[3],0.012 µg/mL
same,MIC,[4]; [6],1 µg/mL
CCCCc1ccc(-c2ccc(C(=O)N[C@@H](CCCCN)C(=O)N(C)[C@@H]3C(=O)N[C@@H](C)C(=O)N[C@H](C(=O)NC4(C#N)CC4)Cc4ccc(OCCN)c(c4)-c4cc3ccc4OCCN)cc2)cc1 [Compound 494],MIC,[1]; [5],1 µg/mL
same,IC50,[2],2100 pM
same,MIC,[3],0.5 µg/mL
same,MIC,[4]; [6],16 µg/mL
CCCCc1ccc(-c2ccc(C(=O)N[C@@H](CN)C(=O)N(C)[C@@H]3C(=O)N[C@@H](C)C(=O)N[C@H](C(=O)NCC#N)Cc4ccc(OCCC)c(c4)-c4cc3ccc4OCCN)cc2)cc1 [Compound 322],MIC,[1]; [5],1.5 µg/mL
same,IC50,[2],8400 pM
same,MIC,[3],0.13 µg/mL
same,MIC,[4]; [6],4 µg/mL
CCCCCCCCCCNCCC(=O)N[C@@H](CCN)C(=O)N(C)[C@@H]1C(=O)N[C@@H](C)C(=O)N[C@H](C(=O)NCC#N)Cc2ccc(OCCN)c(c2)-c2cc1ccc2OCCN [Compound 129],MIC,[1]; [5],0.023 µg/mL
same,IC50,[2],670 pM
same,MIC,[3],0.094 µg/mL
same,MIC,[4]; [6],4 µg/mL
CCCCCCCc1cc(F)c(C(=O)N[C@@H](CCN)C(=O)N(C)[C@@H]2C(=O)N[C@@H](C)C(=O)N[C@H](C(=O)NCC#N)Cc3ccc(OCCN)c(c3)-c3cc2ccc3OCCN)c(Cl)c1 [Compound 437],MIC,[1]; [5],0.063 µg/mL
same,IC50,[2],900 pM
same,MIC,[3],0.0078 µg/mL
same,MIC,[4]; [6],0.25 µg/mL
C[C@@H]1NC(=O)[C@@H](N(C)C(=O)[C@H](CCCCN)NC(=O)c2ccc(-c3ccc(Cl)cc3)cc2)c2ccc(OCCN)c(c2)-c2cc(ccc2OCCN)C[C@@H](C(=O)NCC#N)NC1=O [Compound 482],MIC,[1]; [7],0.13 µg/mL
same,IC50,[2],1600 pM
same,MIC,[3],0.13 µg/mL
same,MIC,[4]; [8],16 µg/mL
CC(C)Cc1cnc(-c2ccc(C(=O)N[C@@H](CCN)C(=O)N(C)[C@@H]3C(=O)N[C@@H](C)C(=O)N[C@H](C(=O)NCC#N)Cc4ccc(OCCN)c(c4)-c4cc3ccc4OCCN)c3ccccc23)nc1 [Compound 182],MIC,[1]; [5],0.5 µg/mL
same,IC50,[2],3200 pM
same,MIC,[3],0.13 µg/mL
same,MIC,[4]; [6],12 µg/mL
